The results in this text go back to patent US20110305703A1, “ISOLATED VEGF-C AND VEGF-D PEPTIDES AND USES THEREOF” (Vegenics Pty Limited, priority 2008, published 2011).

Primed or numbered codes have the meaning given here. No end group written: not given here. *: point of attachment. Biotin = O=C1N[C@H]2[C@H](CS[C@H]2CCCCC(=O)*)N1; Biotin′ = not defined here

One test concerns VEGF-D neutralizing monoclonal antibody mAb 4A5 (VDnmAb). The test is described as follows: ELISA of biotinylated synthetic peptides on streptavidin plates for VDnmAb binding. The conditions noted are these: 1st peptide library; 10 pmol peptide; VDnmAb 2 μg/ml; signal more than two-fold greater than background considered positive. From the text: Peptides. A series of synthetic 15-mer peptides (peptides 1 to 35, SEQ ID NOs: 4 to 38 in FIG. 4B, which overlap each other by 12 amino acids) were synthesized (Mimotopes Pty Ltd, Melbourne, Australia). The peptides encompassed the VHD of human VEGF-D (SEQ ID NO: 3, FIG. 4A). Peptide 36 (SEQ ID NO: 39) represented an artificial sequence including a FLAG tag as a positive control for a commercial anti-FLAG mAb (M2; Sigma) that was used as control for non-specific binding to peptides 1 to 35 (SEQ ID NOs: 4 to 38). Biotin was included at the N-terminal of each peptide during synthesis, except that peptide 1 (SEQ ID NO: 4, representing the N-terminal of the VHD) has biotin at the C-terminal. The four-amino acid linker “SGSG” was introduced between the N-terminal of each peptide sequence and biotin to provide more flexibility to peptides after immobilization on streptavidin plates, except peptide 1 (SEQ ID NO: 4) that included the C-terminal linker “GSG”.
ELISA. Reacti-Bind streptavidin high-binding-capacity coated plates (Pierce) were coated with 10 pmol of each peptide in PBS, blocked with 5% milk in PBS-0.1% Tween 20, and incubated with 100 μl of VEGF-D neutralizing monoclonal antibody mAb 4A5 (referred to herein as VDnmAb) or M2 at 2 μg/ml for 1 h at room temperature. Bound mAb was detected with goat anti-mouse IgG coupled with HRP. ABTS was used as the substrate, and the absorbance was read at 405 nm in a multiwell plate reader.
In this 2nd peptide library, biotin was included at the N-terminal of each peptide, and the four-amino acid linker “SGSG” was introduced between each peptide sequence and the biotin residue to provide more flexibility to peptides after immobilization on streptavidin plates. ELISA-based analysis of the 2nd peptide library was carried out as for the 1st peptide library.
Peptide 67 (SEQ ID NO: 141, the same as peptide 36, SEQ ID NO: 39 from the 1st library) and peptide 68 (SEQ ID NO: 142), both containing the FLAG tag, were used as controls. In this 3rd peptide library, biotin was included at the N-terminal of each peptide except peptides 6, 12 and 14 (SEQ ID NOs: 80, 86 and 88) which have C-terminal biotin residues. To provide more flexibility to peptides after immobilization on streptavidin plates, an amino acid linker was introduced between biotin residues and the peptide sequence: “SGSG” for N-terminal biotin; “SGS” for C-terminal biotin. ELISA-based analysis of the 3rd peptide library was carried out as for the 1st peptide library, described in Example 1.
As for “FRCGGCCNEESLICM (Biotin-SGSGFRCGGCCNEESLICM; cysteine pairing not given here) [peptide 18 (SEQ ID NO: 21), residues 140 to 154 of human VEGF-D, N-terminal biotin and SGSG linker]”, the “VDnmAb binding to peptide (ELISA signal, absorbance at 405 nm)” value (from here on “VDnmAb binding to peptide”) was “positive”.

Staying with this test, now noted: 2nd peptide library; 10 pmol peptide; VDnmAb 2 μg/ml; signal more than two-fold greater than background considered positive.
With “VFRCGGCCNEESL (Biotin-SGSGVFRCGGCCNEESL; cysteine pairing not given here) [peptide 14 (SEQ ID NO: 53), residues 139 to 151 of human VEGF-D, N-terminal biotin and SGSG linker]”, the “VDnmAb binding to peptide” value is given as “the strongest”.
The same measure, in the same setting: next, “VSVYRCGGCCNSEGL (Biotin-SGSGVSVYRCGGCCNSEGL; not fully specified; cysteine pairing not given here) [peptide 32 (SEQ ID NO: 71), residues 157 to 171 of human VEGF-C, biotin and linker]”: “did not bind the antibody”; “peptide 18 (SEQ ID NO: 57): peptide 14 (SEQ ID NO: 53) with deletion of the leucine residue corresponding to position 151 (SGSGVFRCGGCCNEES)”: “complete loss of VDnmAb binding”; “peptide 25 (SEQ ID NO: 64): 2nd library: mutation of two of the cysteine residues to serine (SGSGVNVFRCGGSSNEESL)”: “more effect”.
Same read-out and setting: the value for “peptide 22 (SEQ ID NO: 61): 2nd library: single mutation of cysteine in the binding region, C146S (SGSGVNVFRCGGCSNEESL)” was “very minor or no effect on VDnmAb binding”; that for “FRCGGCCNEESL (Biotin-SGSGFRCGGCCNEESL; cysteine pairing not given here) [peptide 15 (SEQ ID NO: 54), residues 140 to 151 of human VEGF-D, 2nd library, N-terminal biotin and SGSG linker]” was “positive”; that for “30 (SEQ ID NO: 69): from mouse VEGF-D, homologous to Peptide 31 (SEQ ID NO: 70): serine 150 to glycine, leucine 151 to valine (Biotin-SGSGVNVFRCGGCCNEEGV; cysteine pairing not given here)” was “complete loss of VDnmAb binding”.
The same measure, in the same setting: the value for “NVFRCGGCCNEESL (Biotin-SGSGNVFRCGGCCNEESL; cysteine pairing not given here) [peptide 13 (SEQ ID NO: 52), residues 138 to 151 of human VEGF-D, N-terminal biotin and SGSG linker]” was “positive”; that for “peptide 28 (SEQ ID NO: 67): 2nd library: mutation of all three cysteine residues to serine (SGSGVNVFRSGGSSNEESL)” was “significant loss of antibody binding”.
On to “peptide 24 (SEQ ID NO: 63): 2nd library: single mutation of cysteine in the binding region, C142S (SGSGVNVFRSGGCCNEESL)”, for which the “VDnmAb binding to peptide” value is “very minor or no effect on VDnmAb binding”.

Still in this test, the particulars now being: 3rd peptide library; 10 pmol peptide; VDnmAb 2 μg/ml; signal more than two-fold over background considered positive.
For “peptide 8 (SEQ ID NO: 82): 3rd library: mutation of residue 151 to alanine (SGSGVFRCGGCCNEESA)”, the “VDnmAb binding to peptide” value is listed as “decreased VDnmAb binding”.
For the substance “peptide 30 (SEQ ID NO: 104): 3rd library: mutation E149A (SGSGVFRCGGCCNEASL)”, the “VDnmAb binding to peptide” value was “loss, even complete loss, of VDnmAb binding”.
Consider “peptide 23 (SEQ ID NO: 97): 3rd library: mutation N147Q (SGSGVFRCGGCCQEESL)”, for which the “VDnmAb binding to peptide” value is “loss, even complete loss, of VDnmAb binding”.
The same measure, in the same setting: the value for “peptide 31 (SEQ ID NO: 105): 3rd library: double mutation E148D/E149D (SGSGVFRCGGCCNDDSL)” was “loss, even complete loss, of VDnmAb binding”.
The same measure, in the same setting: next, “peptide 10 (SEQ ID NO: 84): 3rd library: mutation V139A (SGSGAFRCGGCCNEESL)”: “little or no effect on VDnmAb binding”; “peptide 24 (SEQ ID NO: 98): 3rd library: mutation N147A (SGSGVFRCGGCCAEESL)”: “loss, even complete loss, of VDnmAb binding”; “peptide 2 (SEQ ID NO: 76): 3rd library: variant of VFRCGGCCNEESL with mutation S150A (SGSGVFRCGGCCNEEAL)”: “reduced VDnmAb binding somewhat”.
Still for that read-out and setting: next, “peptide 3 (SEQ ID NO: 77): 3rd library: variant of VFRCGGCCNEESL with mutation S150T (SGSGVFRCGGCCNEETL)”: “loss, even complete loss, of VDnmAb binding”; “peptide 19 (SEQ ID NO: 93): 3rd library: deletion of F140 (SGSGVRCGGCCNEESL)”: “little or no effect on VDnmAb binding”; “peptide 29 (SEQ ID NO: 103): 3rd library: mutation E149D (SGSGVFRCGGCCNEDSL)”: “loss, even complete loss, of VDnmAb binding”.
For “peptide 1 (SEQ ID NO: 75): 3rd library: variant of VFRCGGCCNEESL with mutation S150C (SGSGVFRCGGCCNEECL)”, the “VDnmAb binding to peptide” value is on record as “loss, even complete loss, of VDnmAb binding”.
On to “CGGCCNEESL (SGSGCGGCCNEESL) [peptide 15 (SEQ ID NO: 89)]”, for which the “VDnmAb binding to peptide” value is given as “positive”.
On to “peptide 4 (SEQ ID NO: 78): 3rd library: variant with deletion of one of N147, E148, E149, S150 (SGSGVFRCGGCCNEEL)”, for which the “VDnmAb binding to peptide” value is “loss of VDnmAb binding”.
The same measure, in the same setting: next, “RCGGCCNEESL [peptide 13 (SEQ ID NO: 87)] (Biotin-SGSGRCGGCCNEESL; cysteine pairing not given here)”: “the strongest”; “RCGGCCNEESL [peptide 14 (SEQ ID NO: 88)] (RCGGCCNEESLSGS-{Biotin′}; cysteine pairing not given here)”: “decreases in VDnmAb binding”; “peptide 22 (SEQ ID NO: 96): 3rd library: deletion of R141 (SGSGVFCGGCCNEESL)”: “little or no effect on VDnmAb binding”.
As for “peptide 27 (SEQ ID NO: 101): 3rd library: mutation E148A (SGSGVFRCGGCCNAESL)”, the “VDnmAb binding to peptide” value was “loss, even complete loss, of VDnmAb binding”.
On the same count and under the same terms, next, “FRCGGCCNEESL [peptide 12 (SEQ ID NO: 86)] (FRCGGCCNEESLSGS-{Biotin′}; cysteine pairing not given here)”: “decreases in VDnmAb binding”.
Same read-out and setting: next, “peptide 17 (SEQ ID NO: 91): 3rd library: mutation F140Y (SGSGVYRCGGCCNEESL)”: “little or no effect on VDnmAb binding”; “peptide 21 (SEQ ID NO: 95): 3rd library: mutation R141A (SGSGVFACGGCCNEESL)”: “little or no effect on VDnmAb binding”; “peptide 20 (SEQ ID NO: 94): 3rd library: mutation R141K (SGSGVFKCGGCCNEESL)”: “more pronounced effect”.

Still in this test, the particulars now being: 3rd peptide library; 10 pmol peptide; VDnmAb 2 μg/ml; signal more than two-fold over background considered positive; listed as peptide 5 (SEQ ID NO: 79).
“VFRCGGCCNEESL (Biotin-SGSGVFRCGGCCNEESL; cysteine pairing not given here) [peptide 14 (SEQ ID NO: 53), residues 139 to 151 of human VEGF-D, N-terminal biotin and SGSG linker]”: the “VDnmAb binding to peptide” value is “bound to VDnmAb”.
